Broadly, the inhibition is how much of the control response was suppressed.

The structures appear in SMILES notation. Calls of active or inactive are those of the source. The rule behind the calls is not given here.

Results on 12 compounds are retold here after ChEMBL document CHEMBL2202971, “Synthesis and anti-hyperglycemic activity of hesperidin derivatives” (2012).

A short description of experiment [1]: Inhibition of alpha glucosidase at 1 mM using pNPG substrate incubated for 60 mins.
For experiment [2], the system named is Mus musculus. The experiment in a line: Antihyperglycemic activity in streptozotocin-induced diabetic Kunming mouse model assessed as blood glucose level at 50 mg/kg/day, po for 10 days measured on day 3 post dose (reference value: 23.97 +/- 3.79 mM). The class given is functional.
Experiment [3] concerns Mus musculus. The experiment is described as follows: Antihyperglycemic activity in streptozotocin-induced diabetic Kunming mouse model assessed as blood glucose level at 100 mg/kg/day, po for 10 days measured on day 3 post dose (reference value: 23.97 +/- 3.79 mM). The class given is functional.
Experiment [4] relates to Mus musculus. The experiment in a line: Antihyperglycemic activity in streptozotocin-induced diabetic Kunming mouse model assessed as blood glucose level at 50 mg/kg/day, po for 10 days measured on day 1 post dose (reference value: 19.93 +/- 6.36 mM). Type of experiment: functional.
Experiment [5] concerns Mus musculus. The experiment in a line: Antihyperglycemic activity in streptozotocin-induced diabetic Kunming mouse model assessed as blood glucose level at 100 mg/kg/day, po for 10 days measured on day 1 post dose (reference value: 19.93 +/- 6.36 mM). The class given is functional.
Another experiment concerns HepG2. The experiment in a line: Induction of glucose consumption in human HepG2 cells at 0.1 mM assessed as glucose concentration incubated for 36 hrs. Type of experiment: functional.
Experiment [6] concerns Mus musculus. The experiment is described as follows: Antihyperglycemic activity in streptozotocin-induced diabetic Kunming mouse model assessed as blood glucose level at 50 mg/kg/day, po for 10 days measured on day 10 post dose (reference value: 23.03 +/- 3.94 mM). Type of experiment: functional.
The subject of experiment [7] is Mus musculus. The experiment in a line: Antihyperglycemic activity in streptozotocin-induced diabetic Kunming mouse model assessed as blood glucose level at 100 mg/kg/day, po for 10 days measured on day 10 post dose (reference value: 23.03 +/- 3.94 mM). Type of experiment: functional.
The subject of experiment [8] is Mus musculus. The experiment is described as follows: Antihyperglycemic activity in streptozotocin-induced diabetic Kunming mouse model assessed as blood glucose level at 50 mg/kg/day, po for 10 days measured on day 7 post dose (reference value: 23.6 +/- 4.25 mM). The class given is functional.
The subject of experiment [9] is Mus musculus. The experiment is described as follows: Antihyperglycemic activity in streptozotocin-induced diabetic Kunming mouse model assessed as blood glucose level at 100 mg/kg/day, po for 10 days measured on day 7 post dose (reference value: 23.6 +/- 4.25 mM). Type of experiment: functional.

With `COc1ccc(C2CC(=O)c3c(O)cc(OCCCCBr)cc3O2)cc1OC` (stereo not given), the inhibition entry in experiment [1] is “Active”.
On the same count and under the same terms, the result for `C[C@H]1O[C@H](O[C@H]2[C@H](O)[C@@H](O)[C@@H](O[C@H]3[C@H](O)[C@@H](O)C(O)O[C@@H]3CO)O[C@@H]2CO)[C@H](O)[C@@H](O)[C@@H]1N[C@H]1C=C(CO)[C@@H](O)[C@H](O)[C@H]1O` (stereo not given in full) reads 54.8%.
Still for that read-out and setting: for `COc1ccc(C2CC(=O)c3c(O)cc(O)cc3O2)cc1OC` (stereo not given) the value was “Active”.
Turning to `COc1ccc(C2CC(=O)c3c(O)cc(OCc4ccccc4)cc3O2)cc1O` (stereo not given), the Activity in the experiment on Mus musculus [2] worked out at 21.25 mM; with Mus musculus [3], 20.12 mM; with Mus musculus [4], 17.5 mM; with Mus musculus [5], 16.78 mM; in the experiment on HepG2, 1.78 mM; with Mus musculus [6], 20.1 mM. The values for the Activity with Mus musculus [7], in the experiment with Mus musculus [8] and with Mus musculus [9] were 13.23 mM, 19.35 mM and 19.18 mM, respectively. Besides, the inhibition in [1] is 55%.
Take `COc1ccc(C2CC(=O)c3c(O)cc(OC(=O)c4ccccc4)cc3O2)cc1O` (stereo not given): the inhibition result in experiment [1] was “Active”.
In experiment [1], `COc1ccc(C2CC(=O)c3c(O)cc(OCc4ccccc4)cc3O2)cc1OC` (stereo not given) showed an inhibition of 53.3%.
As for `CCC(=O)Oc1cc(O)c2c(c1)OC(c1ccc(OC)c(O)c1)CC2=O` (stereo not given), the inhibition result in experiment [1] was “Active”.
On to `CCC(=O)Oc1cc(O)c2c(c1)OC(c1ccc(OC)c(OC)c1)CC2=O` (stereo not given), for which the inhibition result in experiment [1] was “Active”.
On to `CN(C)C(=N)NC(=N)N` [METFORMIN], for which the Activity came to 20.72 mM with Mus musculus [3]; 16.98 mM in the experiment with Mus musculus [5]; 2.11 mM with HepG2; 10 mM with Mus musculus [7]; 14.47 mM with Mus musculus [9].
In the case of `COc1ccc(C2CC(=O)c3c(O)cc(O)cc3O2)cc1O` (stereo not given), the inhibition result in experiment [1] is “Active”.
Regarding `CCCCOc1cc(O)c2c(c1)OC(c1ccc(OC)c(OC)c1)CC2=O` (stereo not given), the inhibition entry in experiment [1] was “Active”.
With `COc1ccc(C2CC(=O)c3c(O)cc(OC(C)=O)cc3O2)cc1O` (stereo not given), the inhibition entry in experiment [1] is “Active”.
